Laboratory results: PubChem BioAssay AID179 (DTP/NCI, 2004)
The source made the active and inactive calls.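 How the source made its calls: active means compounds giving half or more protection of infected cells from virus-caused growth loss, again on retest; inactive means the rest.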

Tested on: CEM cells HIV-1 protection, formazan growth assay
Experiment: NCI AIDS Antiviral Assay
Details: for IC50: measured here: growth of uninfected CEM cells
In short: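 Protection of CEM cells against HIV-1 measured as cell growth via soluble formazan read-out, with five concentrations tested on both infected and uninfected cells; failure to protect may reflect toxicity.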

SMILES | EC50 [µM] | IC50 [µM] | outcome
C/C(CC(=O)Nc1cc(C)ccc1C)=N\NC(=O)c1ccncc1 | > 398 | 20.9 | –
NCCN1C(=O)C2C3c4ccccc4C(c4ccccc43)C2C1=O (stereo not given) | – | – | inactive
NC(CCCCCC(N)C(=O)O)C(=O)O (stereo not given) | – | – | inactive
COC(=O)C(Cc1c[nH]c2ccccc12)NP(=O)(O)OCC1OC(n2ccc(N)nc2=O)C(O)C1O (stereo not given) | > 200 | 5.25 | –
CC1=NNC(=O)C1C1CC(c2c[nH]c3ccccc23)=NNC1=NCc1ccccc1 (stereo not given) | 4.68 | 50.1 | –
CCCCC(=O)[O-].N.N.N.N.N.[Co+3].[O-][Cl+3]([O-])([O-])[O-] | – | – | inactive
Cc1cc(C)nc(NS(=O)(=O)c2ccc(Nc3c4ccccc4nc4c(C(=O)N5CCN(CCOS(C)(=O)=O)CC5)cccc34)cc2)n1 | > 42.7 | > 42.7 | –
COc1ccc(C2=CC3CCC2C3)cc1 (stereo not given) | – | – | inactive
CCOC(=O)c1c(N2CCOCC2)[nH]c(=O)c(C(c2c(O)c(C(=O)OCC)c(N3CCOCC3)[nH]c2=O)C(C)C)c1O | > 200 | > 200 | –
COc1c(Br)cc(Br)c(OC)c1-c1[nH]c(Br)c(Br)c1Br | > 16.6 | > 16.6 | –
COc1cc(CNc2ccc(C(C)C)cc2)cc(OC)c1OC | > 74.1 | 31.6 | –
CN1C(=O)CC2CCCN2C1=O (stereo not given) | > 200 | > 200 | –
COC(=O)c1c[nH]c(=O)[nH]c1=O | > 200 | > 200 | –
CCCC(C(=O)OCCN1CCCC12CCCCC2)C1CCCC1 (stereo not given) | > 200 | 11 | –
COc1cc(/C=C2\CCC(C)/C(=C\c3cc(OC)c(OC)c(OC)c3)C2=O)cc(OC)c1OC (stereo not given) | > 200 | 7.24 | –
CCCCCCOC(=O)CC1CC(C(C)=O)C1(C)C (stereo not given) | > 200 | > 200 | –
N#Cc1c2c(c(N=P(c3ccccc3)(c3ccccc3)c3ccccc3)n3c1nc1ccccc13)CCCC2 | > 1.05 | > 1.05 | –
O=C1c2ccccc2C(=O)c2c(S)cccc21 | 148 | > 200 | –
CCOC(=O)/C=C/c1ccc(N(C)C)cc1 | > 33.1 | > 33.1 | –
CC(C)NS(=O)(=O)c1ncnc2nc[nH]c12 | – | – | inactive
CC1(C)CC(=O)C2=C(C1)OC1(CC2c2ccc(Cl)cc2)CC(c2ccc(Cl)cc2)C2=C(CC(C)(C)CC2=O)O1 (stereo not given) | > 100 | 15.1 | –
COc1ccccc1C1OCC(C)(C)N1C (stereo not given) | > 200 | 14.5 | –
CC(C1=C(CCN(C)C)Cc2ccccc21)c1ccccn1 (stereo not given) | > 200 | 155 | –
C/C(=C\c1ccccc1)n1c(=O)cc(C)n1C | > 200 | > 200 | –

SMILES | EC50 [µM] | IC50 [µM] | outcome
CC(CCc1nc2ccccc2[nH]1)C1CCC2C3C(C[C@H](O)[C@]12C)[C@@]1(C)CC[C@@H](O)C[C@H]1C[C@H]3O (stereo not given in full) | > 50.1 | 10 | –
C=C=C(C)C(C(C)C)N1CCCC1 (stereo not given) | > 1230 | 138 | –
C/C(=N\NC(=S)NC1CCCC1)c1ccccn1 | > 2 | 0.0151 | –
COC(=O)C1(CC(=O)OC(C)(C)C)NCCc2c1[nH]c1ccccc21 (stereo not given) | > 115 | 95.5 | –
N#CC1=C(Nc2ccccc2)SC=C(c2ccccc2)NC1=NCc1ccccc1 | > 200 | 97.7 | –
CC1(C)OC[C@@H](O)[C@H](Br)CO1 | > 200 | 77.6 | –
C=C1OC(c2ccccc2NC)=NC12CCCCC2 | > 200 | 115 | –
O=C1c2cscc2C(=O)c2c(OCc3ccccc3)ccc(OCc3ccccc3)c21 | > 200 | 4.17 | –
COC(=O)[C@]1(C)CCC[C@]2(C)c3ccc(C(C)C)cc3C(=O)C[C@@H]12 | > 200 | 31.6 | –
O=C(O)C1=CN=C(C(=O)O)NN1 | > 1150 | 617 | –
Clc1nc(Cl)nc(NC23CC4CC(CC(C4)C2)C3)n1 | > 200 | 107 | –
CC(=O)Oc1ccc2c(c1)nnn2C(C)=O | > 200 | > 200 | –
CCCCCCc1cc(S(=O)(=O)O)c(O)cc1O | > 200 | > 200 | –
Cc1ccc(C2=C(c3ccccc3)C(=O)C(c3ccccc3)=C2c2ccc(C)cc2)cc1 | > 87.1 | > 87.1 | –
O=C1c2cc3c(cc2CC12Cc1ccc4c(c1C2=O)CCC4)CCC3 (stereo not given) | > 200 | > 200 | –
CCOC(=O)CN1CC(C2=C(O)CN(CC(=O)OCC)C2=O)=CC1=O | – | – | inactive
Cc1nc2cc3c(cc2n2cccc12)oc1ccccc13 | > 44.7 | 35.5 | –
N#Cc1c(/N=C/c2cc(Cl)cc(Cl)c2O)sc2c1CCC2 | > 200 | > 200 | –
CN(C)C1CS(=O)(=O)OC2=C1CCc1sccc12 (stereo not given) | > 25.1 | > 25.1 | –
CC1=C2c3ccccc3N(C(=O)/C=C/C(=O)O)[C@H]2[C@H]2C(=O)OC(=O)[C@H]2C1 | > 200 | 151 | –
COc1cc(/C=C2\CCC(C)C3=C2N=c2s/c(=C/c4ccc(Cl)cc4)c(=O)n2C3c2cc(OC)c(OC)c(OC)c2)cc(OC)c1OC (stereo not given) | > 200 | 102 | –
OC1[C@H]([C@H]2CCCC[C@@H]2O)CCC[C@@H]1[C@@H]1CCCC[C@H]1O (stereo not given in full) | > 170 | > 170 | –
Cc1cc(=O)oc2cc(OCc3nc4ccccc4c(=O)o3)ccc12 | – | – | inactive
Cc1[nH]c2c(ccc3c2ccc2c(=O)c(C)c(C)[nH]c23)c(=O)c1C | > 200 | 138 | –

SMILES | EC50 [µM] | IC50 [µM] | outcome
CC1(C)COC(c2cccnc2/C=N/O)=N1 | > 1150 | > 200 | –
Cc1ccc2c(c1)sc1nnc(C)n12 | – | – | inactive
C/C(CC(=O)Nc1ccc(C)cc1C)=N/N=C(N)N | > 191 | > 191 | –
O=C1NNC(=O)c2ccccc2SSc2ccccc2C(=O)NNC(=O)c2ccccc2SSc2ccccc21 | 5.01 | 25.1 | –
CC1CC(c2ccccc2)Nc2nc3ccccc3n21 (stereo not given) | > 151 | > 151 | –
COc1ccc(Nc2cc(N)nc(N)n2)c(=S)[nH]1 | > 676 | 57.5 | –
CCOC(=O)c1c[nH]c(C(=O)C=[N+]=[N-])c1C1CCN(CC)C1=S (stereo not given) | > 200 | 138 | –
O=c1[nH]cnc2c1ncn2C1CC(O)C(CO)(C(F)(F)F)O1 (stereo not given) | > 200 | 132 | –
O=[N+]([O-])c1cccc(S(=O)(=O)c2cccc([N+](=O)[O-])c2)c1 | > 200 | > 200 | –
CNC(=O)CN(CC(N)=O)C(=O)NC | > 891 | > 891 | –
COc1cc2c3c(c1)nnn3C(=O)CCS2 | > 200 | > 200 | –
COc1ccccc1/C=C/c1nc2ccccc2o1 | > 200 | 107 | –
O=c1[nH]cc(N=Nc2ccc(S(=O)(=O)Nc3ccccn3)cc2)cc1O | > 200 | 87.1 | –
CC(CO)CS(=O)(=O)O (stereo not given) | > 200 | > 200 | –
O=c1c2ncn(C3CCCCO3)c2n(-c2ccccc2)c(=S)n1-c1ccccc1 (stereo not given) | – | – | inactive
CCOC(=O)/C(C#N)=C/c1ccccc1Br | – | – | inactive
COc1ccc2nc3cc([N+](=O)[O-])ccc3c(NNc3ccc(Cl)cc3)c2c1 | > 200 | 33.1 | –
CC1=CSC(O)(c2ccc(Cl)cc2)c2noc(=O)n21 (stereo not given) | > 200 | 112 | –
c1cc(CSP234N5CCN2CCN3CCN4CC5)ccc1CSP123N4CCN1CCN2CCN3CC4 | > 100 | 36.3 | –
COc1cc2c(cc1OC)C1C(=O)c3c(O)cc4c(c3OC1CO2)C=CC(C)(C)O4 (stereo not given) | > 1.82 | 0.891 | –
c1ccc(N2N=C(c3ccco3)CC2c2ccco2)cc1 (stereo not given) | > 25.7 | > 25.7 | –
OC/C=C/c1cccc(Cl)c1 | – | – | inactive
O=C(O)[C@@H]1OCCOCCO[C@@H](C(=O)O)[C@H](C(=O)O)OCCOCCO[C@H]1C(=O)O | > 562 | > 562 | –
CCN(CC)CCCC(C)Nc1ccnc2cc(Cl)ccc12 (stereo not given) | – | – | inactive

SMILES | EC50 [µM] | IC50 [µM] | outcome
CCOc1ccccc1N1CSc2nnc(-c3ccccc3)n2C1 | > 148 | 83.2 | –
CC12OC3(O)C4C5CC(C6C5C3C61)C42 (stereo not given) | – | – | inactive
CN1N=CSC12C(=O)N(c1ccc(Cl)cc1)C(=O)N2c1ccc(Cl)cc1 (stereo not given) | – | – | inactive
Cc1cc(CS(=O)(=O)/C=C/c2ccccc2[N+](=O)[O-])c(CS(=O)(=O)/C=C/c2ccccc2[N+](=O)[O-])cc1C | > 11.5 | > 11.5 | –
O=C(/C=C\c1ccccc1)Oc1ccc(/C=C2\CCCCC2=O)cc1 | > 200 | 7.08 | –
N#Cc1c2c(c(N=[N+]=[N-])n3c1nc1ccccc13)CCCC2 | > 4.68 | > 4.68 | –
CN(C)CCOc1cccc(OCCN(C)C)n1 | > 200 | > 200 | –
COc1ccc(C2=Nc3c(nc(OC)[nH]c3=O)NC(c3ccccc3)C2)cc1 (stereo not given) | – | – | inactive
Cc1ccc(S(=O)(=O)Nn2c(-c3ccccc3)c(C#N)c(-c3ccc([N+](=O)[O-])cc3)c(C#N)c2=O)cc1 | > 200 | 56.2 | –
CC(=O)NC1=C(C)C(=O)c2c(nc3n2CCC3O)C1=O (stereo not given) | > 200 | 1.58 | –
N=C(CN1CCCCC1)N1CCCCC1 | > 200 | > 200 | –
O=C1CCCCCCC2=C1C(Sc1ccccc1)CC2 (stereo not given) | > 200 | 30.9 | –
COC(=O)CCNC(=O)OCc1ccccc1 | > 200 | > 200 | –
O=c1ccs[nH]1 | > 676 | 6.46 | –
COc1ccc2nc3ccccc3c(NCCCN(C)CCCl)c2c1 | > 200 | 0.501 | –
O=C(O)C(NCc1ccccc1)C(NCc1ccccc1)C(=O)O (stereo not given) | > 200 | > 200 | –
C/C(=N\NC(=O)c1ccncc1)c1ccc(F)cc1 | > 363 | > 363 | –
CN1OC2CCC1CC(OC(c1ccccc1)c1ccccc1)C2 (stereo not given) | > 200 | > 200 | –
Nc1cccc2c1-c1c(cccc1[N+](=O)[O-])C2=O | – | – | inactive
Cc1ccc(S(=O)(=O)n2c3c(c4ccccc42)CCN2CCC(Br)C[C@@H]32)cc1 (stereo not given in full) | > 200 | 20.9 | –
Clc1cc2c(c3ncccc13)OCN(CCc1ccccc1)C2 | > 200 | 0.955 | –
